From patent US11840525B2, “Use of AURKB small-molecule inhibitors for treatment of non-small cell lung cancer” (Nanjing China-Australia Institute of Translational Medicine …, priority 2016, dated 2023)

Columns and labels:
HL-60 = assay: Growth inhibition of tumor cells, HL-60; assay type: cell-based; conditions: Homo sapiens, read-out: IC50 against tumor cells, HL-60
Protocol: (§1) Lung cancer cells A549 were separated into a 96-well plate and respectively added with 10 mM TZ47 stock solution to final concentrations of 0 μM, 0.1 μM, 0.5 μM, 1 μM, 2 μM, 4 μM and 8 μM in respective wells. Then the 96-well plate was incubated at 37° C. for 48 h and the growth of the cells was analyzed by a CCK-8 method. […] It can be seen from Table 1 that TZ47 also plays a desirable role in inhibiting the growth of other cancer cells including colorectal cancer, leukemia, liver cancer, melanoma, breast cancer and ovarian cancer.

CaoV-3 = assay: Growth inhibition of tumor cells, CaoV-3; assay type: cell-based; conditions: Homo sapiens, read-out: IC50 against tumor cells, CaoV-3
Protocol: as §1

GST protein = GST protein (Schistosoma japonicum, UniProt P08515); assay: Microscale thermophoresis (MST) binding to control GST protein
Sequence of GST protein (P08515 whole entry): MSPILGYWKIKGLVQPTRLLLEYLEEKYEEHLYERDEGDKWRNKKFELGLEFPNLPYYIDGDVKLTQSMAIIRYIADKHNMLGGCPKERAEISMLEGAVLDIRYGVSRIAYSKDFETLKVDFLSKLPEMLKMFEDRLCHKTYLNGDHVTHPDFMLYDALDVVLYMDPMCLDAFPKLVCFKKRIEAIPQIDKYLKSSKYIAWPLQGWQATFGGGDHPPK

A549 cells [1] = assay: Colony formation assay; assay type: cell-based; conditions: 2 μM, 2 weeks
A549 cells [2] = assay: Transwell cell migration test; assay type: cell-based; conditions: 2 μM, 12 h
Protocol: In addition, Transwell test was also conducted to determine the effect of the expression level of AURKB on the cell migration ability. Similarly, TZ47 (2 μM) was used to treat cells in the Transwell test. […] At the same time, compared to the control scr cells, AURKB-kd cells can partially antagonize the inhibitory effect of TZ47 on cell migration (FIGS. 10A-10B). […] The specific steps were described as follows. • a. Cell migration test • 1) The cells to be tested in the logarithmic growth phase was digested with trypsin and centrifuged to collect the cells. Then the cells were washed once with PBS and resuspended with serum-free DMEM for counting. • 2) 500 μl, of DMEM medium containing 10% FBS was added to a 24-well plate and a Transwell chamber was carefully placed into the plate to prevent air bubbles. Then 100 μL of cell suspension (about 50,000 cells) was added to the Transwell chamber, and a TZ47 solution (final concentration: 2 μM) was simultaneously added to the TZ47 treatment group. The 24-well plate was incubated at 37° C. and 5% CO2 in a cell incubator for 12 h. • 3) The Transwell chamber was removed from the plate and washed in PBS to remove the medium. […]

gene E2F2 in A549 cells = assay: E2F2 expression in A549 cells (real-time quantitative PCR, Western blot); assay type: cell-based
A549 cells [3] = assay: Apoptosis of A549 cells by flow cytometry; assay type: cell-based; conditions: flow cytometer
Description: To elucidate how TZ47 induced the cell death, a flow cytometer was applied to measure and analyze the apoptosis of cells in solvent (DMSO) control group and the treatment groups with different gradients of TZ47 in the use of a cell apoptosis detection kit.

- IC50 (HL-60): 91.6 ± 2.2 nM
- IC50 (CaoV-3): 4470 ± 120 nM
- binding to control GST protein (GST protein): did not bind
Compound: c1ccc2c(Cc3[nH]c4ccccc4c3Cc3c[nH]c4ccccc34)c[nH]c2c1 [TZ47]
- colony formation in control cells (A549 cells [1]): significantly inhibited
- migration ability of cells (A549 cells [2]): significantly showed inhibitory effect
- E2F2 protein level (gene E2F2 in A549 cells; Western blot): reduced
- expression level of gene E2F2 (mRNA) (gene E2F2 in A549 cells; real-time quantitative PCR): significantly reduced
- apoptosis, 1 μM and 2 μM treatment groups (A549 cells [3]; 1 μM and 2 μM): no significant difference
- proportion of early apoptotic cells (A549 cells [3]; 4 μM): significantly increased
